Data from patent US8334316B2, “Substituted organosulfur compounds and methods of using thereof” (ACEA Biosciences, Inc., priority 2004, dated 2012).
Like-named read-outs stand apart in the source and are kept apart here.

Assay: Acute toxicity, single intravenous injection, LD50 (Bliss method) in Kunming mice
Assay type: in vivo
Conditions: for Dead animals on day 8 after the single intravenous injection / Dead animals on day 9 after the single intravenous injection / Dead animals on days 10-14 after the single intravenous injection / Percentage of dead animals / Dead animals on day 1 after the single intravenous injection / Dead animals on day 2 after the single intravenous injection / Dead animals on day 3 after the single intravenous injection / Dead animals on day 4 after the single intravenous injection / Dead animals on day 5 after the single intravenous injection / Dead animals on day 6 after the single intravenous injection / Dead animals on day 7 after the single intravenous injection: 10 animals; for LD50 at 2 weeks: Kunming, mouse, in vivo, iv
Method: To evaluate the in vivo acute, intravenous toxicity of DBTS and ACEA100108 (a derivative of DBTS, see Table 33), the experiments were performed in non-tumor bearing, normal Kunming mice by monitoring the acute response of mice to a single dose of DBTS or ACEA100108 via intravenous injection (i.v.). The number of death for the treated mice was monitored and recorded. LD50 values for these compounds were calculated. Details of the study are provided below.
The experiments to test DBTS and ACEA100108 acute toxicity were performed in mice. The test mice were randomly divided into six groups (five dosing groups and one control group). Each group contained 20 Kunming strain mice, and among them, 50% were male and 50% were female. After administration of a single dose of DBTS or ACEA100108 via intravenous injection (i.v.), the acute response to DBTS or ACEA100108 compound, and the death of the treated mice during the first two weeks were monitored and recorded. The LD50 value was calculated using the Bliss method.
Materials and Method. The test chemical compound were DBTS and ACEA100108, which were dissolved into hydrogenated castor oil in the pre-warmed water bath and made as a 20 mg/ml solution. The solution was further diluted to desired experiment concentrations with the normal saline. The administration volume was 0.5 ml i.v. per mouse and the injection speed was 0.5 ml/0.5 min.
The experimental mice were Kunming strain, provided by the Experimental Animal Department, Shanghai Pharmaceutical Industry Institute. The certificate number of the facility was Animal Facility Certification Number 107. The average weight of the mice was 18-20 gram. Each test group contained 20 Kunming strain mice, and among them, 10 mice were male and 10 mice were female. […] The mice in the control group were only given the same volume of the solvent, which were diluted hydrogenated castor oil. All the testing mice were given a single intravenous injection of DBTS, ACEA100108, or the solvent that served as the control at the injection speed of 0.5 ml/0.5 min. The acute response to DBTS, ACEA100108 or the solvent immediately after the administration, as well as weight change, and the death within the first two weeks of the administration were monitored and recorded. The intravenous injection LD50 values in mice were calculated using the Bliss method.

Fc1ccc(CSSSCc2ccc(F)cc2)cc1 [ACEA100108, Di(p-fluorobenzyl)trisulfide]
Dead animals on day 8 after the single intravenous injection (Female, 320 mg/kg): 0
Dead animals on day 9 after the single intravenous injection (Female, 320 mg/kg): 0
Dead animals on days 10-14 after the single intravenous injection (Female, 320 mg/kg): 0 - - - 0
Percentage of dead animals (Female, 320 mg/kg): 50%
Average animal weight, End (Female, 320 mg/kg, Beginning 19.9): 24.6
Dead animals on day 1 after the single intravenous injection (Female, 400 mg/kg): 5
Dead animals on day 2 after the single intravenous injection (Female, 400 mg/kg): 2
Dead animals on day 3 after the single intravenous injection (Female, 400 mg/kg): 0
Dead animals on day 4 after the single intravenous injection (Female, 400 mg/kg): 1
Dead animals on day 5 after the single intravenous injection (Female, 400 mg/kg): 0
Dead animals on day 6 after the single intravenous injection (Female, 400 mg/kg): 0
Dead animals on day 7 after the single intravenous injection (Female, 400 mg/kg): 0
Dead animals on day 8 after the single intravenous injection (Female, 400 mg/kg): 0
Dead animals on day 9 after the single intravenous injection (Female, 400 mg/kg): 0
Dead animals on days 10-14 after the single intravenous injection (Female, 400 mg/kg): 0 - - - 0
Percentage of dead animals (Female, 400 mg/kg): 80%
Average animal weight, End (Female, 400 mg/kg, Beginning 19.9): 23.5
Dead animals on day 1 after the single intravenous injection (Female, 500 mg/kg): 10
Dead animals on day 2 after the single intravenous injection (Female, 500 mg/kg): 0
Dead animals on day 3 after the single intravenous injection (Female, 500 mg/kg): 0
Dead animals on day 4 after the single intravenous injection (Female, 500 mg/kg): 0
Dead animals on day 5 after the single intravenous injection (Female, 500 mg/kg): 0
Dead animals on day 6 after the single intravenous injection (Female, 500 mg/kg): 0
Dead animals on day 7 after the single intravenous injection (Female, 500 mg/kg): 0
Dead animals on day 8 after the single intravenous injection (Female, 500 mg/kg): 0
Dead animals on day 9 after the single intravenous injection (Female, 500 mg/kg): 0
Dead animals on days 10-14 after the single intravenous injection (Female, 500 mg/kg): 0 - - - 0
Percentage of dead animals (Female, 500 mg/kg): 100%
Dead animals on day 1 after the single intravenous injection (Male, 163.8 mg/kg): 0
Dead animals on day 2 after the single intravenous injection (Male, 163.8 mg/kg): 0
Dead animals on day 3 after the single intravenous injection (Male, 163.8 mg/kg): 0
Dead animals on day 4 after the single intravenous injection (Male, 163.8 mg/kg): 0
Dead animals on day 5 after the single intravenous injection (Male, 163.8 mg/kg): 0
Dead animals on day 6 after the single intravenous injection (Male, 163.8 mg/kg): 0
Dead animals on day 7 after the single intravenous injection (Male, 163.8 mg/kg): 0
Dead animals on day 8 after the single intravenous injection (Male, 163.8 mg/kg): 0
Dead animals on day 9 after the single intravenous injection (Male, 163.8 mg/kg): 0
Dead animals on days 10-14 after the single intravenous injection (Male, 163.8 mg/kg): 0 - - - 0
Percentage of dead animals (Male, 163.8 mg/kg): 0%
Average animal weight, End (Male, 163.8 mg/kg, Beginning 20.4): 27.0
Dead animals on day 1 after the single intravenous injection (Male, 204.8 mg/kg): 0
Dead animals on day 2 after the single intravenous injection (Male, 204.8 mg/kg): 0
Dead animals on day 3 after the single intravenous injection (Male, 204.8 mg/kg): 1
Dead animals on day 4 after the single intravenous injection (Male, 204.8 mg/kg): 0
Dead animals on day 5 after the single intravenous injection (Male, 204.8 mg/kg): 0
Dead animals on day 6 after the single intravenous injection (Male, 204.8 mg/kg): 0
Dead animals on day 7 after the single intravenous injection (Male, 204.8 mg/kg): 0
Dead animals on day 8 after the single intravenous injection (Male, 204.8 mg/kg): 0
Dead animals on day 9 after the single intravenous injection (Male, 204.8 mg/kg): 0
Dead animals on days 10-14 after the single intravenous injection (Male, 204.8 mg/kg): 0 - - - 0
Percentage of dead animals (Male, 204.8 mg/kg): 10%
Average animal weight, End (Male, 204.8 mg/kg, Beginning 20.3): 26.3
Dead animals on day 1 after the single intravenous injection (Male, 256 mg/kg): 0
Dead animals on day 2 after the single intravenous injection (Male, 256 mg/kg): 2
Dead animals on day 3 after the single intravenous injection (Male, 256 mg/kg): 0
Dead animals on day 4 after the single intravenous injection (Male, 256 mg/kg): 1
Dead animals on day 5 after the single intravenous injection (Male, 256 mg/kg): 0
Dead animals on day 6 after the single intravenous injection (Male, 256 mg/kg): 0
Dead animals on day 7 after the single intravenous injection (Male, 256 mg/kg): 0
Dead animals on day 8 after the single intravenous injection (Male, 256 mg/kg): 0
Dead animals on day 9 after the single intravenous injection (Male, 256 mg/kg): 0
Dead animals on days 10-14 after the single intravenous injection (Male, 256 mg/kg): 0 - - - 0
Percentage of dead animals (Male, 256 mg/kg): 30%
Average animal weight, End (Male, 256 mg/kg, Beginning 20.2): 26.3
Dead animals on day 1 after the single intravenous injection (Male, 320 mg/kg): 0
Dead animals on day 2 after the single intravenous injection (Male, 320 mg/kg): 3
Dead animals on day 3 after the single intravenous injection (Male, 320 mg/kg): 1
Dead animals on day 4 after the single intravenous injection (Male, 320 mg/kg): 0
Dead animals on day 5 after the single intravenous injection (Male, 320 mg/kg): 0
Dead animals on day 6 after the single intravenous injection (Male, 320 mg/kg): 0
Dead animals on day 7 after the single intravenous injection (Male, 320 mg/kg): 0
Dead animals on day 8 after the single intravenous injection (Male, 320 mg/kg): 0
Dead animals on day 9 after the single intravenous injection (Male, 320 mg/kg): 0
Dead animals on days 10-14 after the single intravenous injection (Male, 320 mg/kg): 0 - - - 0
Percentage of dead animals (Male, 320 mg/kg): 40%
Average animal weight, End (Male, 320 mg/kg, Beginning 20.0): 26.7
Dead animals on day 1 after the single intravenous injection (Male, 400 mg/kg): 3
Dead animals on day 2 after the single intravenous injection (Male, 400 mg/kg): 3
Dead animals on day 3 after the single intravenous injection (Male, 400 mg/kg): 0
Dead animals on day 4 after the single intravenous injection (Male, 400 mg/kg): 1
Dead animals on day 5 after the single intravenous injection (Male, 400 mg/kg): 0
Dead animals on day 6 after the single intravenous injection (Male, 400 mg/kg): 0
Dead animals on day 7 after the single intravenous injection (Male, 400 mg/kg): 0
Dead animals on day 8 after the single intravenous injection (Male, 400 mg/kg): 0
Dead animals on day 9 after the single intravenous injection (Male, 400 mg/kg): 0
Dead animals on days 10-14 after the single intravenous injection (Male, 400 mg/kg): 0 - - - 0
Percentage of dead animals (Male, 400 mg/kg): 70%
Average animal weight, End (Male, 400 mg/kg, Beginning 19.9): 26.0
Dead animals on day 1 after the single intravenous injection (Male, 500 mg/kg): 10
Dead animals on day 2 after the single intravenous injection (Male, 500 mg/kg): 0
Dead animals on day 3 after the single intravenous injection (Male, 500 mg/kg): 0
Dead animals on day 4 after the single intravenous injection (Male, 500 mg/kg): 0
Dead animals on day 5 after the single intravenous injection (Male, 500 mg/kg): 0
Dead animals on day 6 after the single intravenous injection (Male, 500 mg/kg): 0
Dead animals on day 7 after the single intravenous injection (Male, 500 mg/kg): 0
Dead animals on day 8 after the single intravenous injection (Male, 500 mg/kg): 0
Dead animals on day 9 after the single intravenous injection (Male, 500 mg/kg): 0
Dead animals on days 10-14 after the single intravenous injection (Male, 500 mg/kg): 0 - - - 0
Percentage of dead animals (Male, 500 mg/kg): 100%
LD50 at 2 weeks (both sexes, 50% male, 50% female Kunming mice, single intravenous injection, confidence limits, read-out: LD50 (95% CL)): 284 to 351 mg/kg
LD50 at 2 weeks (both sexes, 50% male, 50% female Kunming mice, single intravenous injection, read-out: LD50): 316 mg/kg
LD50 at 2 weeks (both sexes, Kunming mice, 50% male 50% female, Bliss method, read-out: mouse single i.v. dose LD50, interval in parentheses): 284 to 351 mg/kg
LD50 at 2 weeks (both sexes, Kunming mice, 50% male 50% female, Bliss method, read-out: mouse single i.v. dose LD50 value): 316 mg/kg
LD50 at 2 weeks (female, Female Kunming mice, single intravenous injection, confidence limits, read-out: LD50 (95% CL)): 273 to 360 mg/kg
LD50 at 2 weeks (female, Female Kunming mice, single intravenous injection, read-out: LD50): 313 mg/kg
LD50 at 2 weeks (male, Male Kunming mice, single intravenous injection, confidence limits, read-out: LD50 (95% CL)): 272 to 375 mg/kg
LD50 at 2 weeks (male, Male Kunming mice, single intravenous injection, read-out: LD50): 319 mg/kg
